Data published in patent US10017480B2, “Compounds having a selective PDE4D inhibiting activity” (UNIVERSITÂ DEGLI STUDI DI GENOVA, priority 2014, dated 2018).
Marks after values point to notes of the source that are not given here.

Assays:
[1] = molecular target: PDE4A4 (Homo sapiens, UniProt P27815); assay: PDE4A4 enzyme inhibition (IMAP); assay type: biochemical
Description: (§1) Compound's evaluation on PDE4D3, PDE4A4, PDE4B2 and PDE4C2 enzyme assays were performed by Scottish Biomedical (Glasgow, Scotland, UK) using recombinant human PDE enzymes expressed in a baculoviral system. The preliminary screening assays were performed by the IMAP technology (Molecular Devices), which is based on the high affinity binding of phosphate by immobilized metal coordination complexes on nanoparticles. The binding reagent complexes with phosphate groups on nucleotide monophosphate generated from cyclic nucleotides (cAMP) through phosphodiesterases. With fluorescence polarization detection, binding causes a change in the rate of the molecular motion of the phosphate bearing molecule and results in an increase in the fluorescence polarization value observed for the fluorescent label attached to the substrate. […] All compounds were solved in DMSO at 10^−2 M concentration and then diluted with water to the final suitable concentrations. All synthesized compounds were tested preliminary on PDE4D3 at 10^−5 M concentration, in duplicate. Results are expressed as a percent inhibition of control activity (see table 1).
(§2) The IC50 values obtained for the reference compounds are within accepted limits of historic averages obtained (0.5 log unit). IC50 values are reported at μM concentration in table 1. […] The results are reported (as percent of inhibition at 10 μM concentration) in Table 1.

[2] = molecular target: T1, PDE4C2 (Homo sapiens, UniProt Q08493); assay: PDE4C2 enzyme inhibition (IMAP); assay type: biochemical
T1 construct: purchased Scottish Biomedical (Glasgow, Scotland, UK); host or cells: baculoviral system
Description: as §1, §2

[3] = molecular target: PDE4D3 (Homo sapiens, UniProt Q08499); assay: PDE4D3 enzyme inhibition (IMAP); assay type: biochemical; conditions: for PDE4D3 % inib at 10 μM: in duplicate; for IC50: five concentrations 10^−8-10^−4 M
Description: as §1
IC50 values are reported at μM concentration in table 1. […] The results are reported (as percent of inhibition at 10 μM concentration) in Table 1.

[4] = molecular target: T2, PDE4B2 (Homo sapiens, UniProt Q07343); assay: PDE4B2 enzyme inhibition (IMAP); assay type: biochemical
T2 construct: purchased Scottish Biomedical (Glasgow, Scotland, UK); host or cells: baculoviral system
Description: as §1, §2

[5] = molecular target: PDE4D2 (Homo sapiens, UniProt Q08499); assay: PDE4D2 enzyme inhibition (IMAP); assay type: biochemical
[6] = molecular target: PDE4D1 (Homo sapiens, UniProt Q08499); assay: PDE4D1 enzyme inhibition (IMAP); assay type: biochemical
[7] = system: HTLA cells; assay: Genotoxicity, Western blot of γ-H2AX; assay type: cell-based, human; conditions: 100 μM
Description: To evaluate the genotoxic potential of XVIIIa and GEBR-7b, we analyzed the phosphorylation of the chromatin-bound histone H2AX (γ-H2AX), which is a quantitative marker for the DNA damage response at the site of double-strand breaks.
The H2AX signal represents the internal loading control.

[8] = system: forskolin (FSK)-induced cAMP in neuronal cultured cells; assay: In vitro cAMP-enhancing potential (EIA); conditions: 100 μM, without FSK
[9] = system: spatial object memory performance; assay: OLT dose-response experiment; assay type: in vivo; conditions: for d2 (discrimination performance): 24 h interval, mean (SEM)
[10] = system: α2-adrenoceptor-mediated anesthesia; assay: Ketamine/xylazine induced α2-adrenoceptor-mediated anesthesia test (emesis surrogate); assay type: in vivo, mice; conditions: for Time anesthetized: relative to vehicle (set at 100%)
Description: A shorter anesthesia time than that of the vehicle condition would implicate emetic-like effects. Anesthesia time was calculated relatively to the vehicle condition, which itself was set at 100%, to control for repeated exposure to the test.

[11] = Pharmacokinetic analysis, plasma and brain; conditions: male BALB/c mice, 10 mg/kg subcutaneously
[12] = system: spatial working memory; assay: Y-maze continuous alternation task; assay type: in vivo; conditions: y-maze 6 min, vehicle 60.36
Description: Working memory function is given by the percentage of alternations made while exploring the y-maze for 6 min. No animals were excluded from the statistical analysis.
One-sample t-tests were performed to compare every condition to 50% alternations, i.e. chance level. […] FIG. 7 gives a graphical overview of the Y-maze alternation performance.

[13] = Cytotoxicity, lactate-dehydrogenase release; assay type: cell-based; conditions: human, HTLA human neuronal cells
Description: To evaluate the preliminary toxic profile of the molecule XVIIIa, we performed cytotoxicity and genotoxicity assays on human neuronal cells (HTLA). For the cytotoxic potential, we analyzed the lactate-dehydrogenase release in cells exposed for 24 hours to high concentrations (100 μM) of XVIIIa or GEBR-7b (lead compound—Bruno et al, Br. J. Pharm., 2011, 164:2054).

Chain of PDE4D2 (Q08499 303-809 limits assumed): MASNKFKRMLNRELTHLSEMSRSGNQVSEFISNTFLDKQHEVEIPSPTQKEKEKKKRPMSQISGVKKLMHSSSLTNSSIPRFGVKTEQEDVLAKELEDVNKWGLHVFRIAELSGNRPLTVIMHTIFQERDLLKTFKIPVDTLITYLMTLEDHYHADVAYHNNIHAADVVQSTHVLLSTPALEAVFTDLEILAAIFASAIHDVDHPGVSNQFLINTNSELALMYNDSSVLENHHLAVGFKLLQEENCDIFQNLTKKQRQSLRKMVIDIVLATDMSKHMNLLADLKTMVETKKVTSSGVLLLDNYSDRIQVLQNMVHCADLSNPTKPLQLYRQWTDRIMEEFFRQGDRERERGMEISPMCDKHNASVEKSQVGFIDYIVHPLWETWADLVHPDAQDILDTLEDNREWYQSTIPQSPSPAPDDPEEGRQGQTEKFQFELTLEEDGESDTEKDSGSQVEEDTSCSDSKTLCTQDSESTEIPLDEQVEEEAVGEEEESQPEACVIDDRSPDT
T2 sequence (Q07343 1-564 isoform Q07343-2): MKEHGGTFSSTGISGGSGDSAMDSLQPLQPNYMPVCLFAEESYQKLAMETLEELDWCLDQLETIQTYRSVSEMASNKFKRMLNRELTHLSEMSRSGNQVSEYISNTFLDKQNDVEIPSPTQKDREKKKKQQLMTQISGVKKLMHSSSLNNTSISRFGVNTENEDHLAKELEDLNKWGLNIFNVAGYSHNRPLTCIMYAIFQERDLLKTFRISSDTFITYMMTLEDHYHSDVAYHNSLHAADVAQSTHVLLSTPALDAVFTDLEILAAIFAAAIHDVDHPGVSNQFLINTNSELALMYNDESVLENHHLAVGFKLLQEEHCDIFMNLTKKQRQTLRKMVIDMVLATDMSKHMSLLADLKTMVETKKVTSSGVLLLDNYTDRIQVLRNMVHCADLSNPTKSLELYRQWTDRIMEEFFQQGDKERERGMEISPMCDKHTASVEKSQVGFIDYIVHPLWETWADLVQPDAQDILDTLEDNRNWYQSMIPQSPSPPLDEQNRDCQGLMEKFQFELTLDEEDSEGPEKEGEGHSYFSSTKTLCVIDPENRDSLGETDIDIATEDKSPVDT
T1 sequence (Q08493 107-712): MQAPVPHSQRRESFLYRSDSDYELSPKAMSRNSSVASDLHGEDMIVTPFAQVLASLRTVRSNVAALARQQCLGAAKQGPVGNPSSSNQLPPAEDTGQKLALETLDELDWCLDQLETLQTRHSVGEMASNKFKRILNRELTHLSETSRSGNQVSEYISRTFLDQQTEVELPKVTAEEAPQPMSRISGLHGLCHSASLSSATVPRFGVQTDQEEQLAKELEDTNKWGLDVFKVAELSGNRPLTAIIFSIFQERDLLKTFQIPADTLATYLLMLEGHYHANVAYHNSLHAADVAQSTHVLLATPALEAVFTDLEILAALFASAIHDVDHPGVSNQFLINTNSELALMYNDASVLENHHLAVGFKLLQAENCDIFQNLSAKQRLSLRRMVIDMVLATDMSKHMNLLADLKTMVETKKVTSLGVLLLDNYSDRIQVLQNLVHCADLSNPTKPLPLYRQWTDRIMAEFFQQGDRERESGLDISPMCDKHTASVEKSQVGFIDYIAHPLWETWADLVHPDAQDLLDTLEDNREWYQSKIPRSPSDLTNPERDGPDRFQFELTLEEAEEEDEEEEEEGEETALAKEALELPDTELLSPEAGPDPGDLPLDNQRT
Chain of PDE4A4 (P27815 whole entry): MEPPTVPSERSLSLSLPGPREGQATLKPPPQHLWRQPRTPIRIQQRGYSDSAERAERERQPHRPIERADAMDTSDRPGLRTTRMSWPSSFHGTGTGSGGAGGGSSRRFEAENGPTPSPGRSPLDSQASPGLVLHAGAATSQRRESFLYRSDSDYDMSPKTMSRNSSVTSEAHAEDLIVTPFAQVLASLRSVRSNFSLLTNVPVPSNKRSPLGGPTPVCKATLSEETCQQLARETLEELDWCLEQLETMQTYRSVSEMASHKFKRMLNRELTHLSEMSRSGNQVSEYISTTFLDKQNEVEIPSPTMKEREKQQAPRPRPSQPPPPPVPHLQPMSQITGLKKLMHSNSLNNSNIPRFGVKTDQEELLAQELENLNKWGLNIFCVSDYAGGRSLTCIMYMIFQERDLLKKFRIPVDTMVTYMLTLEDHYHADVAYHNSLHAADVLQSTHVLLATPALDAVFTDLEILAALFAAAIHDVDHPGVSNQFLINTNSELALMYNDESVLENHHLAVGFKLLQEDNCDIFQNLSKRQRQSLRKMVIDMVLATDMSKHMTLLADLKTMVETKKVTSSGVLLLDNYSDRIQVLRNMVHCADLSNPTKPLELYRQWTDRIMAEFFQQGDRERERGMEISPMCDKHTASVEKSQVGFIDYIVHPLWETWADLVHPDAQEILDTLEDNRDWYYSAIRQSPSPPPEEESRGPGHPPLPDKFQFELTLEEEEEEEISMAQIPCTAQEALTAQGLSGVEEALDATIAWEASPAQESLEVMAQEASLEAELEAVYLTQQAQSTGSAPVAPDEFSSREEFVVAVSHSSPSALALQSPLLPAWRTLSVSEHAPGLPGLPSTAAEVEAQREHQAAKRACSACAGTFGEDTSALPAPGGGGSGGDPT
Chain of PDE4D1 (Q08499 1-584 isoform Q08499-4): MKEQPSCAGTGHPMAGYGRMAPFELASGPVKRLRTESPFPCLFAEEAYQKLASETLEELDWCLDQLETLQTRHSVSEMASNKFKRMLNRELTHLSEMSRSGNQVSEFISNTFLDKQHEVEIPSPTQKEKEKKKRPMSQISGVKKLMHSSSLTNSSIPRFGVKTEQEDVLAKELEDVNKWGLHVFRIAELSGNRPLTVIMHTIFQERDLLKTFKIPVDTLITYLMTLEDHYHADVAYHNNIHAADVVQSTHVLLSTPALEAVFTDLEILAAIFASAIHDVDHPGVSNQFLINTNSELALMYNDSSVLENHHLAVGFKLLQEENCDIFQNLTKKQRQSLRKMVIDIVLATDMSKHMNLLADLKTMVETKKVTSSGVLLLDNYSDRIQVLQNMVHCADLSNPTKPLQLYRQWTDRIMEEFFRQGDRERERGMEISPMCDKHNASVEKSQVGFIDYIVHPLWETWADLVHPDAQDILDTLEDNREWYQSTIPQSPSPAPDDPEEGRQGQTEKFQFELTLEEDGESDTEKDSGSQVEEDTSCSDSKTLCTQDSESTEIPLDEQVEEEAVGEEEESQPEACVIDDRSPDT
Chain of PDE4D3 (Q08499 1-673 isoform Q08499-2): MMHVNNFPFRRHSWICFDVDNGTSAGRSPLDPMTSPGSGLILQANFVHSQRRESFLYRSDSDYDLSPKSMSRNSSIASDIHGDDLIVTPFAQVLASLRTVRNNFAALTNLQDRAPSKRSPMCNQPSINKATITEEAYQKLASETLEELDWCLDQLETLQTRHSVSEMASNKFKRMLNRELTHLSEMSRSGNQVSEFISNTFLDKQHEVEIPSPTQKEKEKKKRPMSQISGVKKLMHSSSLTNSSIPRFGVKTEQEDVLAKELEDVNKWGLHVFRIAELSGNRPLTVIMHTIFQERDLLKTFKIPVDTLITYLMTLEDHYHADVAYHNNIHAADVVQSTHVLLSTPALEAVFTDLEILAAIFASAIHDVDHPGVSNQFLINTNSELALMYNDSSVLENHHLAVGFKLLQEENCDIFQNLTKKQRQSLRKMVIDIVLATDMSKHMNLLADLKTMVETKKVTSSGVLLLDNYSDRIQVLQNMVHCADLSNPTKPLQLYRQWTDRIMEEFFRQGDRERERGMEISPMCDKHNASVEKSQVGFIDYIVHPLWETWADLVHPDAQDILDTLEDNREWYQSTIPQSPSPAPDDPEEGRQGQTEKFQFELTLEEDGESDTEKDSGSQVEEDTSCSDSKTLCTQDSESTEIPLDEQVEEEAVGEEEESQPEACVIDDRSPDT

COc1ccc(C2=NOC(CC(=O)N3CC(C)OC(C)C3)C2)cc1OC1CCCC1 (stereo not shown) [XIVb, 4-({3-[3-(Cyclopentiloxy)-4-methoxyphenyl]-4,5-dihydroisoxazol-5-yl}acetil) 2,6-dimethylmorpholine]
PDE4A4 % inib at 10 μM [1]: 45%
PDE4C2 % inib at 10 μM [2]: 23%
PDE4D3 % inib at 10 μM [3]: 51%
IC50 [3]: 5.58 µM
PDE4B2 % inib at 10 μM [4]: 27%
melting point: 104 to 105 °C

COc1ccc(C2=NOC(CC(=O)N3CCCC3)C2)cc1OC1CCCC1 (stereo not shown) [XIVd, 3-[3-(Cyclopentyloxy)-4-methoxyphenyl]-5-(2-oxo-2-pyrrolidin-1-ylethyl)-4,5-dihydroisoxazole]
PDE4A4 % inib at 10 μM [1]: 66%
PDE4C2 % inib at 10 μM [2]: 47%
PDE4D3 % inib at 10 μM [3]: 57%
IC50 [3]: 1.22 µM
PDE4B2 % inib at 10 μM [4]: 59%

COc1ccc(C2=NOC(CC(=O)N(CCO)CCO)C2)cc1OC1CCCC1 (stereo not shown) [XIVg, 2-{3-[3-(Cyclopentyloxy)-4-methoxyphenyl]-4,5-dihydroisoxazol-5-yl}-N,N-bis(2-hydroxyethyl)acetamide]
PDE4A4 % inib at 10 μM [1]: 69%
PDE4C2 % inib at 10 μM [2]: 40%
PDE4D3 % inib at 10 μM [3]: 65%
IC50 [3]: 1.11 µM
PDE4B2 % inib at 10 μM [4]: 68%
melting point: 136 to 138 °C

COc1ccc(-c2ccn(CC(O)CN3CC(C)OC(C)C3)n2)cc1OC1CCCC1 (stereo not shown) [XVIIIb, 1-{3-[3-(Cyclopentyloxy)-4-methoxyphenyl]-1H-pyrazol-1-yl}-3-(2,6-dimethylmorpholin-4-yl)propan-2-ol dihydrocloride]
PDE4D2 % inib at 10 μM [5]: 75%
IC50 [1]: 0.12 µM
PDE4A4 % inib at 10 μM [1]: 52%
PDE4C2 % inib at 10 μM [2]: 45%
PDE4D3 % inib at 10 μM [3]: 78%
IC50 [3]: 6 µM
PDE4D1 % inib at 10 μM [6]: 77%
IC50 [4]: 0.46 µM
PDE4B2 % inib at 10 μM [4]: 53.0%

COc1ccc(-c2cc(C(O)CN3CC(C)OC(C)C3)on2)cc1OC1CCCC1 (stereo not shown) [XVIb, 1-{3-[3-(Cyclopentyloxy)-4-methoxyphenyl]isoxazol-5-yl}-2-(2,6-dimethylmorpholin-4-yl)ethanol]
PDE4D2 % inib at 10 μM [5]: 3%
PDE4A4 % inib at 10 μM [1]: 0%
PDE4C2 % inib at 10 μM [2]: 7%
PDE4D3 % inib at 10 μM [3]: 15%
PDE4D1 % inib at 10 μM [6]: 2%
PDE4B2 % inib at 10 μM [4]: 5%
melting point: 92 to 94 °C

OC(CN1CCOCC1)Cn1ccc(-c2ccc(OC(F)F)c(OC3CCCC3)c2)n1 (stereo not shown) [XXIIa, 1-{3-[3-(cyclopentyloxy)-4-(difluoromethoxy)phenyl]-1H-pyrazol-1-yl}-3-morpholin-4-ylpropan-2-ol]
DNA damage (γ-H2AX) [7]: not observed
PDE4A4 % inib at 10 μM [1]: 11%
basal cAMP levels [8]: without affecting the basal cAMP levels
d2 (discrimination performance) ([9]; 0.0003 mg/kg): 0.02 (0.05)
d2 (discrimination performance) ([9]; 0.001 mg/kg): 0.06 (0.05)
memory function (OLT) ([9]; 0.003 mg/kg): fully enhance memory function
d2 (discrimination performance) ([9]; 0.003 mg/kg, p < 0.001 vs zero): 0.34 (0.05) ^###
d2 (discrimination performance) ([9]; 0.01 mg/kg): 0.05 (0.03)
memory improvement (OLT) ([9]; 0.0003, 0.001 and 0.01 mg/kg): did not show any memory improvement at all
Time anesthetized ([10]; 0.003 mg/kg): 112.28%
Time anesthetized ([10]; 0.03 mg/kg): 109.52%
Time anesthetized ([10]; 0.3 mg/kg): 107.45%
emetic-like effects ([10]; 0.003-3.0 mg/kg, one-way ANOVA n.s.): does not have emetic-like effects
Time anesthetized ([10]; 3.0 mg/kg): 91.22%
AUC0-t ([11]; brain): 2330 ng·h/g
t1/2 ([11]; brain): 57 min
AUC0-t ([11]; plasma): 861 ng·h/mL
Cmax ([11]; plasma): 993 ng/mL
Tmax ([11]; plasma): 19.8 min
PDE4B2 % inib at 10 μM [4]: 26%
Alternations % ([12]; 0.001 mg/kg): 60.86 ^### %
Alternations % ([12]; 0.003 mg/kg): 63.54 ^### %
Alternations % ([12]; 0.01 mg/kg): 61.88 ^### %
cytotoxicity at 24 h, 100 µM [13]: 0.1 ± 0.36%

COc1ccc(-c2ccn(CCC(=O)N3CC(C)OC(C)C3)n2)cc1OC1CCCC1 (stereo not shown) [XXIb, 4-(3-{3-[3-(cyclopentyloxy)-4-methoxyphenyl]-1H-pyrazol-1-yl}propanoyl)2,6-dimethylmorpholine]
PDE4A4 % inib at 10 μM [1]: 28%
PDE4C2 % inib at 10 μM [2]: 42%
PDE4D3 % inib at 10 μM [3]: 53%
IC50 [3]: 1.8 µM
PDE4B2 % inib at 10 μM [4]: 28%

COc1ccc(-c2ccn(CC(=O)N3CCOCC3)n2)cc1OC1CCCC1 [XXa, 4-({3-[3-(Cyclopentyloxy)-4-methoxyphenyl]-1H-pyrazol-1-yl}acetyl)morpholine]
PDE4D2 % inib at 10 μM [5]: 23%
PDE4D3 % inib at 10 μM [3]: 27%
PDE4D1 % inib at 10 μM [6]: 42%
melting point: 131 to 132 °C

COc1ccc(-c2ccn(CC(=O)N3CC(C)OC(C)C3)n2)cc1OC1CCCC1 (stereo not shown) [XXb, 4-({3-[3-(Cyclopentyloxy)-4-methoxyphenyl]-1H-pyrazol-1-yl}acetyl)2,6-dimethylmorpholine]
PDE4D2 % inib at 10 μM [5]: 13%
PDE4D3 % inib at 10 μM [3]: 23%
PDE4D1 % inib at 10 μM [6]: 18%
melting point: 99 to 100 °C
